In paper PMC9928118, “Funneling modulatory peptide design with generative models: Discovery and characterization of disruptors of calcineurin protein-protein interactions” (PLOS Computational Biology, 2023):
Each block holds one sequence with its values, some of them ahead of it.

Assays:
[1] = test system: GST-tagged Cn; assay: PEPperPRINT peptide microarray binding assay with GST-tagged Cn
Summary of the method: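 Qualitative binding: peptides printed on a PEPperPRINT microarray were incubated overnight at 4 °C with 1 mg/ml GST-tagged Cn, then detected with Alexa-Fluor 647 anti-GST antibody. Log fluorescence was baseline-corrected, averaged over duplicate spots, Z-normalized and averaged across five repeats.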

[2] = test system: GST-tagged Cn; assay: as above; details: max over the duplicate spots (Location on chip)
[3] = GST-tagged Cn, mean over the duplicate spots (Location on chip)
[4] = GST-tagged Cn, max over the chip spots listed under Location on chip
[5] = GST-tagged Cn, mean over the chip spots listed under Location on chip
[6] = GST-tagged Cn, max over the spots on the chip (two locations)
[7] = GST-tagged Cn, mean over the spots on the chip (two locations)
[8] = GST-tagged Cn, max over the chip locations
[9] = GST-tagged Cn, mean over the chip locations
[10] = max over the spots listed under Location on chip
[11] = mean over the spots listed under Location on chip

Sequence: RNPGTFLLTLRGHKKQ [SeqRBMlowT_5813]
Chip Fluorescence (mean) [1, 3]: 1.08
Chip Fluorescence (max) [2]: 2.447

Sequence: LSLYVNALGMESFTIS [SeqRBM_9141]
Chip Fluorescence (mean) [1, 3]: 0.3343
Chip Fluorescence (max) [2]: 2.172

Sequence: PSIYQEVLGIGNFSLS [SeqRBMlowT_4899]
Chip Fluorescence (mean) [1, 3]: 0.7614
Chip Fluorescence (max) [2]: 2.16

Sequence: TFWTNPQFRVHLEDED [SeqRBMlowT_4265]
Chip Fluorescence (mean) [1, 3]: 1.067
Chip Fluorescence (max) [2]: 1.93

Sequence: GAYMCPFMSWQDCGQR [SeqRBMlowT_4796]
Chip Fluorescence (mean) [1, 3]: 0.4498
Chip Fluorescence (max) [2]: 2.042

Sequence: TFWTNPQYRIKVTDPD [SeqRBMlowT_12]
Chip Fluorescence (max) [1, 8]: -0.2746
Chip Fluorescence (mean) [1, 9]: -1.188

Sequence: STSSLPTFSFSSPAPS [SeqRBMlowT_801]
Chip Fluorescence (max) [1, 8]: -0.2979
Chip Fluorescence (mean) [1, 9]: -1.46

Sequence: TFWTNPQFRIKLEDPD [SeqRBMlowT_91]
Chip Fluorescence (max) [1, 10]: 2.652
Chip Fluorescence (mean) [1, 11]: 0.4239

Sequence: TFTDNPQYTIKLVETD [SeqRBM_9774]
Chip Fluorescence (max) [1, 4]: 0.9523
Chip Fluorescence (mean) [1, 5]: 0.09387

Sequence: LKKTYLRREMHGCYNH [Seqrandom_9958]
Chip Fluorescence (max) ([1]; GST-tagged Cn, max over the spots named in Location on chip): 1.4154
Chip Fluorescence (mean) ([1]; GST-tagged Cn, mean over the spots named in Location on chip): 0.777

Sequence: LAFALPAFSFAAMKSA [SeqRBM_4599]
Chip Fluorescence (max) [1, 8]: -0.5301
Chip Fluorescence (mean) [1, 9]: -2.0266

Sequence: VHQCTPEVSVSVCFTC [SeqRBM_8420]
Chip Fluorescence (max) [1, 8]: 0.0911
Chip Fluorescence (mean) [1, 9]: -0.9088

Sequence: VETIRPGVVTEPMEAG [SeqRBM_4600]
Chip Fluorescence (max) [1, 10]: 3.238
Chip Fluorescence (mean) [1, 11]: 1.278

Sequence: GTDTTPSVVVHVCEDD [SeqRBMlowT_1211]
Chip Fluorescence (max) [1, 4]: 0.8657
Chip Fluorescence (mean) [1, 5]: -0.2753

Sequence: TFWTNPQYRLWIVSVD [SeqRBM_2615]
Chip Fluorescence (max) [1, 6]: 1.0899
Chip Fluorescence (mean) [1, 7]: -0.4347

Sequence: LKDEFSDVRLNIISNL [SeqRBMlowT_1878]
Chip Fluorescence (max) [1, 4]: 0.7069
Chip Fluorescence (mean) [1, 5]: 0.04327

Sequence: TFWTNPQFKITLEEPD [SeqRBMlowT_951]
Chip Fluorescence (max) [1, 10]: 2.6
Chip Fluorescence (mean) [1, 11]: 0.9758

Now from value to sequence:

Chip Fluorescence (mean) [1, 3]: 1.226
Chip Fluorescence (max) [2]: 2.274
Sequence: TFWSNPQFRLKLEDPD [SeqRBMlowT_6883]

Chip Fluorescence (mean) [1, 3]: 0.2546
Chip Fluorescence (max) [2]: 2.223
Sequence: LMDLCPVVRLQIISAL [SeqRBM_7616]

Chip Fluorescence (mean) [1, 3]: -0.04845
Chip Fluorescence (max) [2]: 2.513
Sequence: ASEANPEITVTPAELP [SeqRBMlowT_1250]

Chip Fluorescence (mean) [1, 3]: -0.1329
Chip Fluorescence (max) [2]: 2.151
Sequence: HDLQCVINLHENACKT [Seqrandom_9996]

Chip Fluorescence (mean) [1, 3]: 0.9748
Chip Fluorescence (max) [2]: 2.584
Sequence: TFWTNPQYRLKLEEPD [SeqRBMlowT_264]

Chip Fluorescence (mean) [1, 3]: 0.771
Chip Fluorescence (max) [2]: 2.355
Sequence: YRQAVRFEMPLTACAP [Seqrandom_9969]

Chip Fluorescence (mean) [1, 3]: 0.5882
Chip Fluorescence (max) [2]: 2.053
Sequence: TFFINPQFKASLTEMD [SeqRBM_564]

Chip Fluorescence (mean) [1, 3]: 0.7051
Chip Fluorescence (max) [2]: 2.037
Sequence: PSLYINALGIESFTLS [SeqRBMlowT_6967]

Chip Fluorescence (mean) [1, 3]: 1.091
Chip Fluorescence (max) [2]: 2.265
Sequence: TFWTNPQFRIKLEDED [SeqRBMlowT_645]

Chip Fluorescence (max) [1, 4]: 0.6271
Chip Fluorescence (mean) [1, 5]: -0.8819
Sequence: ATSFVPQLASTLFSLW [SeqRBM_1383]

Chip Fluorescence (max) [1, 6]: 1.232
Chip Fluorescence (mean) [1, 7]: -0.1213
Sequence: KMAKFLINLSAEKSVM [Seqrandom_9965]

Chip Fluorescence (max) [1, 6]: 1.174
Chip Fluorescence (mean) [1, 7]: 0.5723
Sequence: RNPGTALLELRGHKAS [SeqRBMlowT_6384]

Chip Fluorescence (max) [1, 10]: 2.778
Chip Fluorescence (mean) [1, 11]: 0.1403
Sequence: NKLKIPHQLSQPINDH [SeqRBM_2163]

Chip Fluorescence (max) ([1]; max over the chip locations listed for the peptide (two spots)): 5.611
Chip Fluorescence (mean) ([1]; mean over the chip locations listed for the peptide (two spots)): 1.324
Sequence: TTLVIPQMRLTSEATF [SeqRBM_1117]

Chip Fluorescence (max) [1, 6]: 1.116
Chip Fluorescence (mean) [1, 7]: -0.403
Sequence: ASEANPEITITPAELP [SeqRBMlowT_410]

Chip Fluorescence (max) [1, 4]: 0.9025
Chip Fluorescence (mean) [1, 5]: -0.2688
Sequence: GLLNVYKKTRITYDNL [Seqrandom_1974]
